# Structures can show the parent of a compound that is named as a salt.
# Target: T1, MASP-2 (CCP1-CCP2-SP) (Homo sapiens, UniProt O00187)
# T1 construct: 15 μL of Enzyme MASP-2 (CCP1-CCP2-SP) in Assay Buffer
# Experiment: Enzymatic Assay for MASP-2
# Assay type: biochemical
# Conditions: fluorogenic substrate based on C2 cleavage site, room temperature, 20 mM HEPES pH 7.4
# Method: Enzymatic Assay for MASP-2
# The MASP-2 assay utilizes a fluorogenic substrate, based on the cleavage site for its natural substrate C2. The assay is run at room temperature in an assay buffer containing 20 mM HEPES, pH 7.4, 140 mM NaCl and 0.1% Tween 20. Assay parameters are adjusted such that the assay is linear with respect to time, enzyme, and substrate concentrations. Under these optimized assays conditions, IC50 values are equivalent to Ki values, except in a few cases of “tight binding” inhibitors. Cases of “tight binding” or possible “slow binding” inhibitors are handled by the methods described in Copeland R. A. (2013) Evaluation of Enzyme Inhibitors in Drug Discovery. 2nd Ed., John Wiley and Sons, Inc., Chapters 5-7.
# The MASP-2 assay protocol is carried out as follows. Test compounds are serially diluted in DMSO and then 100 nL of each dilution is transferred to the assay plate(s). 10 μL of Assay Buffer is added, followed by 15 μL of Enzyme MASP-2 (CCP1-CCP2-SP) in Assay Buffer. 15 μL of Substrate in Assay Buffer is then added and mixed to start the reactions. After 20 min at room temperature, 15 μL of a stop solution (0.1 M acetic acid) is added, mixed and the plates are read on a SpectraMax i3x Microplate Reader and exported as Excel files. Each assay plate included a “no inhibitor” (DMSO Only) control, a “no enzyme” control and a reference inhibitor control. % Activity values=100*(average test comp. fluorescence−average “no enzyme” fluorescence)/(average “DMSO only” fluorescence−average “no enzyme” fluorescence). IC50 and Ki values are very reproducible, falling well within ±2-fold.
# T1 sequence (O00187 445-686 limits assumed): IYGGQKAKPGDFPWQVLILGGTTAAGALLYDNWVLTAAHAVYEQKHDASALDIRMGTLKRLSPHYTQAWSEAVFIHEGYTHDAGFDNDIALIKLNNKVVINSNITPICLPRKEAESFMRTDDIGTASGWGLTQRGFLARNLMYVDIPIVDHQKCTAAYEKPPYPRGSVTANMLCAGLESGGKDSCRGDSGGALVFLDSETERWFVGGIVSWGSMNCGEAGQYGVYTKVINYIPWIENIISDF
# T1 sequence (O00187 298-444 partner limits assumed): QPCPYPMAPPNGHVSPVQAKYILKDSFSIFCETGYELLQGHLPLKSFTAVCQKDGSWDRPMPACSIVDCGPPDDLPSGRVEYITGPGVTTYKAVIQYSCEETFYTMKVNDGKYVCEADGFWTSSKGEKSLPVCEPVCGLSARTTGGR
row,Structure (SMILES),Ki
1,"Cc1nc(N)ccc1CNC(=O)Cn1c(C)ncc(NS(=O)(=O)Cc2ccccc2)c1=O [Compound 1, N-((6-Amino-2-Methylpyridin-3-yl)Methyl)-2-(2-Methyl-6-Oxo-5-((Phenylmethyl)Sulfonamido)Pyrimidin-1(6H)-yl)Acetamide, Trifluoro Acetate]",> 10000 nM
2,"Cc1ncc(NCCc2ccccc2)c(=O)n1CC(=O)NCc1ccc2nc(N)[nH]c2c1 [Compound 3, N-((2-Amino-1H-benzo[d]imidazol-6-yl)methyl)-2-(2-methyl-6-oxo-5-(phenethylamino)pyrimidin-1(6H)-yl)acetamide trifluoroacetate]",< 500 nM
3,"Nc1nc2ccc(CNC(=O)Cn3c(-c4ccccc4)ncc(NCCc4ccccc4)c3=O)cc2[nH]1 [Compound 4, N-((2-Amino-1H-Benzo[d]Imidazol-6-yl)Methyl)-2-(6-Oxo-5-(Phenethylamino)-2-Phenylpyrimidin-1(6H)-yl)Acetamide, Trifluoroacetate]",< 500 nM
4,"CSc1ncc(NCCc2ccccc2)c(=O)n1CC(=O)NCc1ccc2nc(N)[nH]c2c1 [Compound 5, N-((2-Amino-1H-Benzo[d]Imidazol-6-yl)Methyl)-2-(2-(Methylthio)-6-Oxo-5-(Phenethylamino)Pyrimidin-1(6H)-yl)Acetamide]",< 500 nM
5,"Cc1nc(N)ccc1CNC(=O)Cn1c(-c2ccccc2)ncc(NCCc2ccccc2)c1=O [Compound 6, N-((6-Amino-2-Methylpyridin-3-yl)Methyl)-2-(6-Oxo-5-(Phenethylamino)-2-Phenylpyrimidin-1(6H)-yl)Acetamide]",< 500 nM
6,"Nc1nc2ccc(CNC(=O)Cn3c(Br)cnc(NCCc4ccccc4)c3=O)cc2[nH]1 [Compound 8, N-((2-Amino-1H-Benzo[d]Imidazol-6-yl)Methyl)-2-(6-Bromo-2-Oxo-3-(Phenethylamino)Pyrazin-1(2H)-yl)Acetamide]",< 500 nM
7,"Nc1nc2cc(CNC(=O)Cn3c(-c4ccccc4)cnc(NCCc4ccccc4)c3=O)ccc2[nH]1 [Compound 9, N-((2-Amino-1H-Benzo[d]Imidazol-5-yl)Methyl)-2-(2-Oxo-3-(Phenethylamino)-6-Phenylpyrazin-1(2H)-yl)Acetamide]",< 500 nM
8,"N#Cc1cccc(-c2cnc(NCCc3ccccc3)c(=O)n2CC(=O)NCc2ccc3nc(N)[nH]c3c2)c1 [Compound 14, N-((2-Amino-1H-benzo[d]imidazol-6-yl)methyl)-2-(6-(3-cyanopheny1)-2-oxo-3-(phenethylamino)pyrazin-1(2H)-yl)acetamide]",< 500 nM
9,NC(=O)c1cccc(-c2cnc(NCCc3ccccc3)c(=O)n2CC(=O)NCc2ccc3nc(N)[nH]c3c2)c1 [Compound 15],< 500 nM
10,Nc1nc2ccc(CNC(=O)Cn3c(-c4cccc(C(=O)O)c4)cnc(NCCc4ccccc4)c3=O)cc2[nH]1 [Compound 16],< 500 nM
11,"O=C(Cn1c(-c2ccccc2)cnc(NCCc2ccccc2)c1=O)NCc1cc2cnccc2[nH]1 [Compound 20, N-((1H-Pyrrolo[3,2-c]pyridin-2-yl)methyl)-2-(2-oxo-3-(phenethylamino)-6-phenylpyrazin-1(2H)-yl)acetamide trifluoroacetate]",< 500 nM
12,"O=C(Cn1c(-c2ccc(C(F)(F)F)cc2)cnc(NCCc2ccccc2)c1=O)NCc1cc2cnccc2[nH]1 [Compound 21, N-((1H-Pyrrolo[3,2-c]Pyridin-2-yl)Methyl)-2-(2-Oxo-3-(Phenethylamino)-6-(4-(Trifluoromethyl)Phenyl)Pyrazin-1(2H)-yl)Acetamide, Trifluoroacetate]",< 500 nM
13,"Cc1nc(N)ccc1CNC(=O)Cn1c(=O)c(NCCc2ccccc2)cn(C)c1=O [Compound 34, N-((6-Amino-2-Methylpyridin-3-yl)Methyl)-2-(3-Methyl-2,6-Dioxo-5-(Phenethylamino)-3,6-Dihydropyrimidin-1(2H)-yl)Acetamide]",< 500 nM
14,"Cc1cc(Cl)cc(CNC(=O)Cn2c(=O)c(NCCc3ccccc3)cn(C)c2=O)c1O [Compound 35, trifluoroacetate]",2500 to 10000 nM
15,"Cc1nc(N)ccc1CNC(=O)Cn1c(=O)c(NS(=O)(=O)Cc2ccccc2)cn(C)c1=O [Compound 36, N-((6-Amino-2-Methylpyridin-3-yl)Methyl)-2-(3-Methyl-2,6-Dioxo-5-((Phenylmethyl)Sulfonamido)-3,6-Dihydropyrimidin-1(2H)-yl)Acetamide, Trifluoroacetate]",> 10000 nM

# Further lines, results first:
row,Ki,Structure (SMILES)
1,< 500 nM,"Cc1nc(N)ccc1CNC(=O)Cn1c(C)ncc(NCCc2ccccc2)c1=O [Compound 2, N-((6-Amino-2-Methylpyridin-3-yl)Methyl)-2-(2-Methyl-6-Oxo-5-(Phenethylamino)Pyrimidin-1(6H)-yl)Acetamide, Trifluoroacetate]"
2,< 500 nM,"Cc1nc(N)ccc1CNC(=O)Cn1c(-c2ccc(Cl)cc2)cnc(NCCc2ccccc2)c1=O [Compound 17, N-((6-Amino-2-Methylpyridin-3-yl)Methyl)-2-(6-(4-Chlorophenyl)-2-Oxo-3-(Phenethylamino)Pyrazin-1(2H)-yl) Acetamide, Trifluoroacetate]"
3,< 500 nM,"Cc1nc(N)ccc1CNC(=O)Cn1c(-c2cccnc2)cnc(NCCc2ccccc2)c1=O [Compound 18, N-((6-amino-2-methylpyridin-3-yl)methyl)-2-(2-oxo-3-(phenethylamino)-6-(pyridin-3-yl)pyrazin-1(2H)-yl)acetamide trifluoroacetate]"
4,< 500 nM,"Cc1nc(N)ccc1CNC(=O)Cn1c(Cc2ccccc2)cnc(NCCc2ccccc2)c1=O [Compound 19, N-((6-amino-2-methylpyridin-3-yl)methyl)-2-(6-benzyl-2-oxo-3-(phenethylamino)pyrazin-1(2H)-yl)acetamide trifluoroacetate]"
5,< 500 nM,"Cc1nc(N)ccc1CNC(=O)Cn1c(-c2ccc[nH]2)cnc(NCCc2ccccc2)c1=O [Compound 22, N-((6-Amino-2-methylpyridin-3-yl)methyl)-2-(2-oxo-3-(phenethylamino)-6-(1H-pyrrol-2-yl)pyrazin-1(2H)-yl)acetamide]"
6,< 500 nM,"Cc1nc(N)ccc1CNC(=O)Cn1c(-c2cncnc2)cnc(NCCc2ccccc2)c1=O [Compound 23, N-((6-Amino-2-methylpyridin-3-yl)methyl)-2-(2-oxo-3-(phenethylamino)-6-(pyrimidin-5-yl)pyrazin-1(2H)-yl)acetamide]"
7,< 500 nM,"Cc1nc(N)ccc1CNC(=O)Cn1c(-c2cccc3cnccc23)cnc(NCCc2ccccc2)c1=O [Compound 24, N-((6-Amino-2-methylpyridin-3-yl)methyl)-2-(6-(isoquinolin-5-yl)-2-oxo-3-(phenethylamino)pyrazin-1(2H)-yl)acetamide]"
8,< 500 nM,"Cc1nc(N)ccc1CNC(=O)Cn1c(-c2cnn(C)c2)cnc(NCCc2ccccc2)c1=O [Compound 25, N-((6-Amino-2-methylpyridin-3-yl)methyl)-2-(6-(1-methyl-1H-pyrazol-4-yl)-2-oxo-3-(phenethylamino)pyrazin-1(2H)-yl)acetamide]"
9,500 to 2500 nM,"Cc1nc(N)ccc1CNC(=O)Cn1c(C#Cc2ccccc2)cnc(NCCc2ccccc2)c1=O [Compound 26, N-((6-Amino-2-Methylpyridin-3-yl)Methyl)-2-(2-Oxo-3-(Phenethylamino)-6-(Phenylethynyl)Pyrazin-1(2H)-yl)Acetamide]"
10,< 500 nM,"Cc1nc(N)ccc1CNC(=O)Cn1c(-c2ccc(C#N)cc2)cnc(NCCc2ccccc2)c1=O [Compound 27, N-((6-Amino-2-Methylpyridin-3-yl)Methyl)-2-(6-(4-Cyanophenyl)-2-Oxo-3-(Phenethyl Amino)Pyrazin-1(2H)-yl)Acetamide]"
11,< 500 nM,"COc1ccccc1-c1cnc(NCCc2ccccc2)c(=O)n1CC(=O)NCc1ccc(N)nc1C [Compound 28, N-((6-Amino-2-methylpyridin-3-yl)methyl)-2-(6-(2-methoxyphenyl)-2-oxo-3-(phenethylamino)pyrazin-1(2H)-yl)acetamide hydrochloride]"
12,< 500 nM,Cc1nc(N)ccc1CNC(=O)Cn1c(-c2ccccc2Cl)cnc(NCCc2ccccc2)c1=O [Compound 29]
13,< 500 nM,"Cc1nc(N)ccc1CNC(=O)Cn1c(-c2cccc(C(N)=O)c2)cnc(NCCc2ccccc2)c1=O [Compound 30, 3-(1-(2-(((6-Amino-2-methylpyridin-3-yl)methyl)amino)-2-oxoethyl)-6-oxo-5-(phenethylamino)-1,6-dihydropyrazin-2-yl)benzamide hydrochloride]"
14,< 500 nM,"Cc1nc(N)ccc1CNC(=O)Cn1c(-c2ccc(N)cc2)cnc(NCCc2ccccc2)c1=O [Compound 31, N-((6-Amino-2-Methylpyridin-3-yl)Methyl)-2-(6-(4-Aminophenyl)-2-Oxo-3-(Phenyethylamino)Pyrazin-1-(2H)-yl)Acetamide]"
15,< 500 nM,"Cc1nc(N)ccc1CNC(=O)Cn1c(-c2cccc(CO)c2)cnc(NCCc2ccccc2)c1=O [Compound 32, N-((6-Amino-2-Methylpyridin-3-yl)Methyl)-2-(6-(3-(Hydroxymethyl)Phenyl)-2-Oxo-3-(Phenethyl Amino)Pyrazin-1(2H)-yl)Acetamide]"
16,< 500 nM,Cc1nc(N)ccc1CNC(=O)Cn1c(-c2ccc(CO)cc2)cnc(NCCc2ccccc2)c1=O [Compound 33]

# Source: patent US12110288B2, “MASP-2 inhibitors and methods of use” (Omeros Corporation, priority 2019, dated 2024)
